The subject of test [1] is HAS-2 (Hyaluronic acid synthase-2). Nature of the test: HAS-2 mRNA in fibroblasts by RT-PCR. The note with it: 72 hours. It is filed as cell-based, human. From the text: The presently claimed and disclosed inventive concept(s) further contemplates use of various DHE, IE and EV compositions and salts, esters, ethers, and derivatives thereof to mitigate the effects of aging on the skin. For all aging studies, normal human fibroblast cell cultures were used. These cells normally produce collagen, elastin and hyaluronic acid. As the skin ages, the fibroblasts in the dermis lose their ability to produce these three key components of skin, and the skin consequently loses elasticity, thickness and smooth texture. In addition, as fibroblasts age, they increase the expression of certain enzymes that destroy collagen and elastin. There are about 13 of these enzymes, collectively referred to as MMPs (matrix metalloproteinases). One of the principal MMPs, MMP-1, is responsible for collagen degradation. For experiments herein to determine the effects of DHE, IE and EV on collagen, elastin and hyaluronic acid, fibroblasts were treated with the compounds for 72 hours, mRNA was then isolated, and analyzed for abundance by RT-PCR (Reverse transcriptase-Polymerase Chain Reaction).
DHE, IE and EV, are also shown herein to stimulate mRNA for HAS-2. HAS-2 (Hyaluronic acid synthase-2) is the enzyme that manufactures hyaluronic acid (HA) in the skin. HA is a glycosaminoglycan important for maintaining moisture and suppleness in the skin. […] As the skin ages, the production of HA decreases and this causes the skin to sag and become thin.

For the next test, the system named is TNF-α. Nature of the test: LPS-induced TNF-α production in monocytes. It is filed as cell-based. The conditions noted are these: Monocyte; Monocytes (LPS); 100 uM; read-out: Percent Inhibition of TNF-α. The source says: (§1) DHE and IE both have inhibitory effects on the production of the inflammatory mediators in monocytes.
Test [2] concerns IL-8. Nature of the test: LPS-induced IL-8 production in monocytes. It is filed as cell-based. The note with it: Monocyte; Monocytes (LPS); 100 uM; read-out: Percent Inhibition of IL-8.
Description: as §1

The subject of test [3] is IL-8. In words: UV-induced IL-8 production in keratinocytes (ELISA). It is filed as cell-based, human. The conditions noted are these: Homo sapiens, Keratinocyte, read-out: Percent Inhibition of IL-8. The method, then:
(§2) In one study, various concentrations of DHE were added to culture medium and these media were placed on human fibroblast cell cultures (results shown in FIG. 1). Cells were either not induced or induced with UVB radiation to stimulate cytokine/PGE-2 production. At 24 hours after treatment, the cell culture medium was removed and assayed by ELISA methods for the expression of PGE-2, various cytokines and chemokines.
When similar experiments were carried out with human keratinocytes, DHE was again found to markedly suppress the UVR induction of PGE-2, with a concentration of 50 uM inhibiting the production of PGE-2 by over 60% (results shown in FIG. 2). […] Further, since PGE-2 is known to be a principal factor in the development of actinic keratosis and skin cancer, DHE can also be used in treating these conditions.
DHE and IE both have inhibitory effects on production of the inflammatory mediators in keratinocytes.
A general note: In an ELISA, binding on a coated surface is turned into a signal by an enzyme label.

For the next test, the system named is PGE-2. Nature of the test: UV-induced PGE-2 production in fibroblasts (ELISA). The conditions noted are these: Homo sapiens, Fibroblast; Fibroblasts (UV); 100 uM; read-out: Percent Inhibition of PGE-2. It is filed as cell-based, human. The method, then:
as §2
As is shown in FIG. 1, UV radiation (UVR) treatment of fibroblasts results in a 6 fold increase in PGE-2.
DHE and IE both have inhibitory effects on the production of the inflammatory mediators in fibroblasts.

Consider `CC=Cc1ccc(O)c(OC)c1` [IE, isoeugenol], for which, in test [1], the “mRNA for HAS-2” value is “stimulate”. Besides, the inhibition (as a rule, the drop in the measured response relative to a control, in per cent) at 100 µM with TNF-α amounted to 80%; in the test on IL-8 [2] it was 75%; with IL-8 [3], 76%; in the test on PGE-2 it was 77%.

Source of the values: US9616006B2, “Methods and compositions for treating dermatological diseases and conditions” (priority 2007, dated 2017).
